The supplement of paper PMC10307832

Compound: CNC(=O)c1cc(Oc2ccc(NC(=O)Nc3ccc(Cl)c(C(F)(F)F)c3)cc2)ccn1 [Sorafenib]
Assay: relative viability (nuclei count vs DMSO), 5 days (fraction); higher = more cells survive
Outline: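 On vehicle-anchored 1536-well plates, lung cancer cell lines held overnight at 37 °C were pinned with five library-drug doses (not always all listed) spaced by √10. With no medium change over 5 days, they were then fixed, permeabilised and Hoechst-stained in one step and imaged at 4×. MetaXpress counted nuclei, and viability is the median across plates of treated-well over vehicle-well nuclei. Acceptance needed control CV below 25% and at least one doubling.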

Cell Line	relative viability (0.08 µM)	relative viability (0.253 µM)	relative viability (2.53 µM)	relative viability (8 µM)
201T	0.975	0.943	1.07	0.918
A-427	0.999	0.902	0.94	0.752
ABC-1	1.07	0.808	–	0.584
BEN	1.08	0.826	1.15	0.823
CAL-12T	1.01	0.882	0.985	0.644
COR-L23	1.04	0.926	0.957	0.781
COR-L 105	1.11	0.867	1.15	0.691
ChaGo-K-1	–	0.915	1	0.867
EKVX	1.05	0.954	0.963	0.952
EMC-BAC-2	1.05	0.786	0.938	0.873
EPLC-272H	1.19	0.842	1.09	0.774
H3255	1.07	0.89	0.99	0.755
HARA	1.17	0.79	1.07	0.767
HCC-15	1.05	0.912	1.05	0.69
HCC-44	0.989	0.886	0.941	0.901
HCC-78	1.13	0.953	1.05	1.05
HCC-366	1	1.02	1	0.999
HCC-827	1.06	0.954	1.02	0.956
HOP-62	0.986	0.858	0.764	0.589
IA-LM	–	0.646	0.563	0.514
LC-2-ad	1.03	0.834	0.939	0.762
LCLC-97TM1	1.16	0.778	–	0.703
LCLC-103H	0.975	0.946	1.13	1.03
LK-2	1.09	0.766	0.848	0.494
LOU-NH91	1.1	0.967	1.17	–

Cell Line	relative viability (0.08 µM)	relative viability (0.253 µM)	relative viability (2.53 µM)	relative viability (8 µM)
LU99A	0.997	0.94	0.777	0.696
LXF-289	1.06	0.97	1.03	0.958
NCI-H23	1	0.875	0.974	0.704
NCI-H322M	1.14	0.918	1.3	1.27
NCI-H358	1.04	1.05	1.01	0.688
NCI-H441	1.05	0.783	0.908	0.584
NCI-H460	1.01	0.918	1	0.654
NCI-H520	0.93	0.823	–	0.75
NCI-H522	1.04	0.877	0.865	0.648
NCI-H596	0.993	1.03	1.18	0.969
NCI-H647	1.05	0.763	0.853	0.492
NCI-H650	1.08	0.82	0.83	0.78
NCI-H661	–	1.02	0.97	0.713
NCI-H727	1.15	0.768	0.88	0.691
NCI-H838	1.04	0.996	1.17	0.994
NCI-H1355	1.02	0.921	0.958	0.788
NCI-H1395	1.1	0.76	1.02	0.775
NCI-H1437	0.999	0.872	0.945	0.583
NCI-H1563	1.07	0.958	1.02	0.779
NCI-H1650	1.17	0.909	1.31	0.534
NCI-H1651	1.07	0.958	0.985	–
NCI-H1666	0.992	0.913	0.985	0.844
NCI-H1703	0.859	0.46	0.271	0.249
NCI-H1734	–	0.97	0.909	0.618
NCI-H1755	1.04	–	0.973	0.936

Cell Line	relative viability (0.08 µM)	relative viability (0.253 µM)	relative viability (2.53 µM)	relative viability (8 µM)
NCI-H1792	0.877	0.843	0.892	0.773
NCI-H1793	1.06	0.944	1.15	0.596
NCI-H1915	0.956	0.894	0.934	0.945
NCI-H1944	0.923	0.927	0.932	0.734
NCI-H1975	1.05	0.889	1.1	1.03
NCI-H1993	1.09	0.968	1.19	0.812
NCI-H2009	0.951	0.786	0.924	0.731
NCI-H2023	1.15	0.89	1.07	0.425
NCI-H2085	1.06	0.972	1.04	0.895
NCI-H2087	1.12	–	0.927	0.4
NCI-H2126	1.02	0.997	1.07	1
NCI-H2170	1	0.875	0.943	0.782
NCI-H2228	1.17	0.736	0.941	0.714
NCI-H2342	–	0.728	–	0.656
NCI-H2347	1.11	0.964	1.01	0.944
NCI-H2405	1.12	0.89	1.06	0.74
NCI-H3122	0.994	1.01	0.977	0.881
PC-3 [JPC-3]	1.15	0.973	1.09	–
PC-14	1.07	0.928	1.05	–
RERF-LC-KJ	1.01	0.903	0.976	0.941
SK-LU-1	1.15	0.876	0.92	0.655
SK-MES-1	1.04	0.936	0.997	0.752
SW 900	0.996	0.781	1.13	0.865
SW 1573	1.03	0.98	0.877	0.456
UMC-11	1.03	0.907	0.917	0.648
